Data on 30 molecules can be found in ChEMBL document CHEMBL1141185, “4,6-Disubstituted 2,2-dimethylchromans structurally related to the K(ATP) channel opener cromakalim: design, synthesis, and effect on insulin release and vascular tone” (J Med Chem, 2005).

What all share (type): functional
The species entered for test [1] is Rattus norvegicus. In words: Percentage of residual insulin secretion value in the pancreatic islets of rat after treatment with the compound at 10 uM concentration.
For test [2], the species on record is Rattus norvegicus. In words: Myorelaxant activity of the compound against insulin secretion in the pancreatic islets ofrat; (activity expressed as ED50). The conditions noted are these: read-out: ED50 (the source's name).
For test [3], the species on record is Rattus norvegicus. In words: Myorelaxant effect on 80 mM KCl induced rat aorta rings determined; (activity expressed as ED50). The conditions noted are these: read-out: ED50 (the source's name).
The species named for test [4] is Rattus norvegicus. Description: Myorelaxant effect on 30 mM KCl induced rat aorta rings determined; (activity expressed as ED50). The conditions noted are these: read-out: ED50 (the source's name).
The species named for test [5] is Rattus norvegicus. In words: Myorelaxant effect on 30 mM KCl induced rat aorta rings determined after incubated with the 1 uM glibenclamide in the medium; (activity expressed as ED50). The conditions noted are these: read-out: ED50 (the source's name).
For test [6], the species on record is Rattus norvegicus. Description: Myorelaxant effect on 30 mM KCl induced rat aorta rings determined after incubated with the 10 uM glibenclamide in the medium; (activity expressed as ED50). The note with it: read-out: ED50 (the source's name).
The species named for test [7] is Rattus norvegicus. Description: Myorelaxant effect of the compound on 80 mM KCl induced rat aorta rings determined; (activity expressed as ED50). The conditions noted are these: read-out: ED50 (the source's name).
For test [8], the species on record is Rattus norvegicus. Description: Inhibitory concentration against rat vascular smooth muscle tissue.
The species named for test [9] is Rattus norvegicus. Description: Myorelaxant effect of the compound on 30 mM KCl induced rat aorta rings determined after incubated with the 0 uM glibenclamide in the medium; (activity expressed as ED50). The note with it: read-out: ED50 (the source's name).
Test [10] is filed under the species Rattus norvegicus. In words: Myorelaxant effect of the compound on 30 mM KCl induced rat aorta rings determined after incubated with the 1 uM glibenclamide in the medium; (activity expressed as ED50). The conditions noted are these: read-out: ED50 (the source's name).
Test [11] is filed under the species Rattus norvegicus. In words: Myorelaxant effect of the compound on 30 mM KCl induced rat aorta rings determined after incubated with the 10 uM glibenclamide in the medium; (activity expressed as ED50). The conditions noted are these: read-out: ED50 (the source's name).

Regarding `CCNC(=O)NC1CC(C)(C)Oc2ccc(F)cc21` (stereo not given), the Residual secretion in the test filed under Rattus norvegicus [1] is recorded as 106.2%. The EC50 in the test listed under Rattus norvegicus [2] came out at 42.9 µM.
The matching figures for `CCNC(=S)NC1CC(C)(C)Oc2ccc(Br)cc21` (stereo not given): 80.8% and 3.7 µM.
Molecule `Cc1ccc(S(=O)(=O)NC(=O)NC2CC(C)(C)Oc3ccc(Cl)cc32)cc1` (stereo not given) gave a Residual secretion in the test filed under Rattus norvegicus [1] of 103.5%. In the test filed under Rattus norvegicus [2], the EC50 turned out to be 63.6 µM.
`CCNC(=O)NC1CC(C)(C)Oc2ccc(Cl)cc21` (stereo not given): the Residual secretion in the test filed under Rattus norvegicus [1] is given as 89.5%. Also, the EC50 in the test listed under Rattus norvegicus [2] amounted to 6.8 µM.
The matching figures for `CC(C)NC(=O)NC1CC(C)(C)Oc2ccc(F)cc21` (stereo not given): 98.4% and 109 µM.
The matching figures for `CC(=O)NC1CC(C)(C)Oc2ccc(F)cc21` (stereo not given): 83.8% and 46.5 µM.
The matching figures for `CC1(C)CC(NC(=O)NCc2ccccc2)c2cc(Cl)ccc2O1` (stereo not given): 67.1% and 15.3 µM.
In the test listed under Rattus norvegicus [1], `CCNC(=S)NC1CC(C)(C)Oc2ccc(F)cc21` (stereo not given) returned a Residual secretion of 82.5%. Besides, in the test listed under Rattus norvegicus [2], the EC50 is 17.6 µM.
`CCOC(=O)NC1CC(C)(C)Oc2ccc(Br)cc21` (stereo not given) gave a Residual secretion in the test listed under Rattus norvegicus [1] of 88.8%. Besides, the EC50 in the test filed under Rattus norvegicus [2] was 25.7 µM.
The matching figures for `CC1(C)CC(NC(=O)NCc2ccccc2)c2cc(Br)ccc2O1` (stereo not given): 58.5% and > 300 µM.
The matching figures for `CC1(C)CC(NC(=S)NCc2ccccc2)c2cc(Br)ccc2O1` (stereo not given): 51.8% and 24.8 µM.
In turn, `CC1(C)CC(NC(=O)NS(=O)(=O)c2ccccc2)c2cc(Cl)ccc2O1` (stereo not given) registered a Residual secretion in the test listed under Rattus norvegicus [1] of 94.7%. Also, the EC50 in the test filed under Rattus norvegicus [2] worked out at 210 µM.
The matching figures for `CC1(C)CC(NC(=S)NCc2ccccc2)c2cc(F)ccc2O1` (stereo not given): 54.4% and 4.3 µM.
The matching figures for `CC(=O)NC1CC(C)(C)Oc2ccc(Br)cc21` (stereo not given): 94.2% and 6.4 µM.
On to `CC1(C)CC(NC(=O)NS(=O)(=O)c2ccc(Cl)cc2)c2cc(Cl)ccc2O1` (stereo not given), for which, in the test listed under Rattus norvegicus [1], the Residual secretion was 89.2%. Besides, in the test filed under Rattus norvegicus [2], the EC50 came out at 51 µM.
The matching figures for `CC(C)NC(=O)NC1CC(C)(C)Oc2ccc(Br)cc21` (stereo not given): 79.1% and > 300 µM.
The matching figures for `CCNC(=O)NC1CC(C)(C)Oc2ccc(Br)cc21` (stereo not given): 91.5% and 7.6 µM.
The matching figures for `CCOC(=O)NC1CC(C)(C)Oc2ccc(Cl)cc21` (stereo not given): 83.3% and 38.5 µM.
Take `CC1(C)CC(NC(=S)NCc2ccccc2)c2cc(Cl)ccc2O1` (stereo not given): in the test filed under Rattus norvegicus [1], the Residual secretion came out at 45.4%. In the test filed under Rattus norvegicus [2], the EC50 is 20.2 µM.
In the test filed under Rattus norvegicus [1], `CC(C)NC(=S)NC1CC(C)(C)Oc2ccc(Br)cc21` (stereo not given) displayed a Residual secretion of 58.9%. For the same molecule, in the test listed under Rattus norvegicus [2], the EC50 was 8.7 µM.
For `CC1(C)CC(NC(=O)NCc2ccccc2)c2cc(F)ccc2O1` (stereo not given), the Residual secretion in the test listed under Rattus norvegicus [1] is listed as 80.8%.
In the test filed under Rattus norvegicus [1], `CC(C)NC(=S)NC1CC(C)(C)Oc2ccc(Cl)cc21` (stereo not given) came in with a Residual secretion of 83.3%. In addition, the EC50 in the test listed under Rattus norvegicus [2] turned out to be 10.9 µM.
The matching figures for `CCOC(=O)NC1CC(C)(C)Oc2ccc(F)cc21` (stereo not given): 100.8% and 72.4 µM.
The matching figures for `CC(C)NC(=O)NC1CC(C)(C)Oc2ccc(Cl)cc21` (stereo not given): 86.3% and 144 µM.
As to `CC(=O)NC1CC(C)(C)Oc2ccc(Cl)cc21` (stereo not given), in the test filed under Rattus norvegicus [1], the Residual secretion was determined as 100.8%. For the same molecule, the EC50 in the test listed under Rattus norvegicus [3] turned out to be 84.2 µM; in the test filed under Rattus norvegicus [4] it was 6.3 µM; in the test listed under Rattus norvegicus [2], 6.6 µM; in the test filed under Rattus norvegicus [5] it was 33.8 µM; in the test filed under Rattus norvegicus [6], 44.6 µM.
Regarding `CC(C)NC(=S)NC1CC(C)(C)Oc2ccc(F)cc21` (stereo not given), in the test listed under Rattus norvegicus [1], the Residual secretion amounted to 88.7%. Moreover, the EC50 in the test listed under Rattus norvegicus [2] turned out to be 18.5 µM.
The matching figures for `CCNC(=S)NC1CC(C)(C)Oc2ccc(Cl)cc21` (stereo not given): 96.5% and 8.2 µM.
Turning to `CC1(C)Oc2ccc(C#N)cc2C(N2CCCC2=O)C1O` (stereo not given) [CROMAKALIM], in the test filed under Rattus norvegicus [1], the Residual secretion is given as 94.7%. The EC50 in the test listed under Rattus norvegicus [7] is > 300 µM; in the test listed under Rattus norvegicus [2] it was 0.13 µM; in the test filed under Rattus norvegicus [9], 0.14 µM; in the test filed under Rattus norvegicus [10], 1.8 µM; in the test filed under Rattus norvegicus [11], 15.2 µM. Besides, it took 0.13 µM to reach half-maximal inhibition in the test filed under Rattus norvegicus [8] (IC50).
For `CC1=Nc2ccc(Cl)cc2S(=O)(=O)N1` [DIAZOXIDE], the Residual secretion in the test listed under Rattus norvegicus [1] is 71.7%. For the same molecule, the EC50 in the test filed under Rattus norvegicus [2] came to 23.8 µM. The molecule also showed an IC50 in the test filed under Rattus norvegicus [8] of 23.8 µM.
With `CC(N/C(=N\C#N)Nc1ccncc1)C(C)(C)C` (stereo not given) [PINACIDIL ANHYDROUS], the Residual secretion in the test listed under Rattus norvegicus [1] is on record as 96%. Further, the EC50 in the test listed under Rattus norvegicus [2] was 0.35 µM. In the test listed under Rattus norvegicus [8], the half-inhibitory concentration (IC50) stood at 0.35 µM.

By IC50 is commonly meant the concentration needed to halve the response being measured. Low readings indicate greater potency in that assay, high ones weaker potency in that assay.
